System: tau proteins
Test: Immunoblot with tau-1 antibody in cultured mouse hippocampal slices
Type: cell-based
Conditions: six days of ZPAD; for reduction in native tau proteins (50-55 kDa): mean±s.e.m., n=6
Experimental: Hippocampal slices were prepared from 10 to 13 day old C57BL/6J (wild-type) and C57BL/6J-ApoE^tm1Unc (ApoE-knockout) mice obtained from the Jackson laboratory, Bar Harbor, Me. Pups were placed under light bromo-chloro-trifluoroethane anesthesia (Sigma, St. Louis, Mo.), and killed by decapitation. After removing the brains, the hippocampus was dissected and subsequently placed on a McIlwain tissue chopper where slices (400 μm thick) were obtained and placed in a solution of cutting medium consisting of Minimum Essential Medium (MEM) with Earle's salts (Gibco, Grand Island, N.Y.), 25 mM HEPES buffer, 10 mM Tris base, 10 mM glucose, and 3 mM MgCl2, pH 7.20. Hippocampal slices were then placed onto the membranes of Millicell-CM culture inserts (Millipore Corp., Bedford, Mass.) in 6 well culture cluster plates and 1 ml of media per well using the methods described by Stoppini et al., J. Neurosci. Methods 37(2):173-82 (1991). The culture medium was described previously by Bednarski et al., J. Neurosci. 17(11):4006-21 (1997). The cultures were incubated in a 37° C. atmosphere containing 5% CO2 and the culture medium was replaced every other day until the initiation of experiments. Each culture cluster plate contained hippocampal slices from either two wild-type or two apoE-knockout mice and individual wells were used for matched control and experimental treatment groups.
After maintaining the slices with normal culture medium (Bednarski et al., J. Neurosci. 17(11):4006-21 (1997)) in vitro for 12-14 days, slices were incubated with culture medium containing either 20 μM N-CBZ-L-phenylalanyl-L-alanine-diazomethyl-ketone (ZPAD; BACHEM Bioscience, Inc., Torrance, Calif.), an inhibitor of cathepsins B and L (Shaw & Dean, Biochem. J. 186:385-390 (1980); Green & Shaw, J Biol Chem. 256:1923-1928 (1981); Richardson et al., J. Cell Biol. 107: 2097-2107 (1988)) or vehicle (dimethylsulfoxide; DMSO, 0.01%-0.04%) for six days. This treatment media was exchanged every other day.
Control and ZPAD-treated slices were collected in ice-cold 10 mM Tris-HCl harvest buffer consisting of 0.32 M sucrose, 2 mM EDTA, 2 mM EGTA, and 0.1 mM leupeptin, pH 7.4, and centrifuged at 12,000×g for 5 minutes at 4° C. At this point, the pellets were resuspended in lysis buffer (8 mM HEPES, 1 mM EDTA, 0.3 mM EGTA, pH 8.0) and sonicated. The Bradford analysis was performed (Bradford, M, Anal. Biochem 72:248-254 (1976)) and 100-120 μg of protein from each sample was denatured by boiling for 5 min with 2.5% (wt/vol) sodium dodecyl sulfate (SDS) and 3% 2-mercaptoethanol and then subjected to SDS-PAGE on 10% linear gradient gels. See Laemmli et al., J. Mol. Biol. 47:69-85 (1970). […] Relative optical densities and areas of immunobands were quantified using the NIH image analysis system.

With “N-CBZ-L-phenylalanyl-L-alanine-diazomethyl-ketone [ZPAD]” the “increase in levels of the 15-35 kDa tau fragments” value (apoE-knockout mouse slices) was 277±20%, the “reduction in native tau proteins (50-55 kDa)” value (apoE-knockout mouse slices) was 35±1.1% and the “increase in levels of the 15-35 kDa tau fragments” value (wild-type mouse slices) was 240±19%. For the same substance, the “reduction in native tau proteins (50-55 kDa)” value (wild-type mouse slices) was 22±2.6%.

— US6803233B2, “Model for Alzheimer's disease and other neurodegenerative diseases” (priority 2000, dated 2004)
